Data as given in ChEMBL document CHEMBL4004843, “"Addition" and "Subtraction": Selectivity Design for Type II Maternal Embryonic Leucine Zipper Kinase Inhibitors” (J Med Chem, 2017).

Tests used:
[1] = biological target: Maternal embryonic leucine zipper kinase (Homo sapiens, UniProt Q14680); assay: Inhibition of MELK (unknown origin) containing kinase domain and UBA domain using STK S1 as substrate after 20 mins by HTRF assay
[2] = biological target: Rho-associated protein kinase 2 (Homo sapiens, UniProt O75116); assay: Inhibition of ROCK2 (unknown origin)
Chain of Rho-associated protein kinase 2 (O75116 whole entry): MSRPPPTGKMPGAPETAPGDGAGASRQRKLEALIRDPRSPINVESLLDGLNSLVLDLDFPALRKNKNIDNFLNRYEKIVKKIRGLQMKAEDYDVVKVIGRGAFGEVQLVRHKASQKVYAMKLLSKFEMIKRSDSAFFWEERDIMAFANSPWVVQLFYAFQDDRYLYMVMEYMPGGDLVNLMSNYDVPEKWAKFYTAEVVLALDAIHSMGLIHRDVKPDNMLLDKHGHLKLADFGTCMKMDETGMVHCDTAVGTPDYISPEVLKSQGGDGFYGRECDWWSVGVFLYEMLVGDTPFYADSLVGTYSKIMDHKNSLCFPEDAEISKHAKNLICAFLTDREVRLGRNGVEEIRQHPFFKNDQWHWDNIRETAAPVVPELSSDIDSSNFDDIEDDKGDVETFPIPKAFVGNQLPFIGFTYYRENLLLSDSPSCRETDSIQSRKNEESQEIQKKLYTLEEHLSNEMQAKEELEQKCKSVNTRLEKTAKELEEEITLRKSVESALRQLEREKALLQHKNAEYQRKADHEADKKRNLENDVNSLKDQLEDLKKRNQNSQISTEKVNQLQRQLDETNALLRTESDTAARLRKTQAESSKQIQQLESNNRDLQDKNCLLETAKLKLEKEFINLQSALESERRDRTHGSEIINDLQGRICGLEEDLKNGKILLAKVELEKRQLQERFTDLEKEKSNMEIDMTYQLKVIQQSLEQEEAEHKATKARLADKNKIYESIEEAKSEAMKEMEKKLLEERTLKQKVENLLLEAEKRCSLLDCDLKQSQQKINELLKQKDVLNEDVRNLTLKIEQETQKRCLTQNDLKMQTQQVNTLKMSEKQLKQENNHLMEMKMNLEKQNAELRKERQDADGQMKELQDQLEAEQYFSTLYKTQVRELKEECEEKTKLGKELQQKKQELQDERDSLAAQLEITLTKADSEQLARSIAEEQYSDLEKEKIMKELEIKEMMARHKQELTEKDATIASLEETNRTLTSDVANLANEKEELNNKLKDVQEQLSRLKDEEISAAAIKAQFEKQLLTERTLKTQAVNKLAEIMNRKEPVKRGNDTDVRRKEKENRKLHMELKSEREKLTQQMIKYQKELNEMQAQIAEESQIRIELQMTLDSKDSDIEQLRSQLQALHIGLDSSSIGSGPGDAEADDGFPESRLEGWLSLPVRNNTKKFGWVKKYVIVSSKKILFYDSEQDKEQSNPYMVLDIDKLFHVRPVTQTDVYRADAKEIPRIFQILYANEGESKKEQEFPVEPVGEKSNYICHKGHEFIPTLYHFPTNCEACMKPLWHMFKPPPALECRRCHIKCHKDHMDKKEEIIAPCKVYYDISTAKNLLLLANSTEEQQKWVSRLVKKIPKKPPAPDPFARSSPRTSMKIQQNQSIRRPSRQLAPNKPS

Chain of Maternal embryonic leucine zipper kinase (Q14680 whole entry, the tested form may be a part): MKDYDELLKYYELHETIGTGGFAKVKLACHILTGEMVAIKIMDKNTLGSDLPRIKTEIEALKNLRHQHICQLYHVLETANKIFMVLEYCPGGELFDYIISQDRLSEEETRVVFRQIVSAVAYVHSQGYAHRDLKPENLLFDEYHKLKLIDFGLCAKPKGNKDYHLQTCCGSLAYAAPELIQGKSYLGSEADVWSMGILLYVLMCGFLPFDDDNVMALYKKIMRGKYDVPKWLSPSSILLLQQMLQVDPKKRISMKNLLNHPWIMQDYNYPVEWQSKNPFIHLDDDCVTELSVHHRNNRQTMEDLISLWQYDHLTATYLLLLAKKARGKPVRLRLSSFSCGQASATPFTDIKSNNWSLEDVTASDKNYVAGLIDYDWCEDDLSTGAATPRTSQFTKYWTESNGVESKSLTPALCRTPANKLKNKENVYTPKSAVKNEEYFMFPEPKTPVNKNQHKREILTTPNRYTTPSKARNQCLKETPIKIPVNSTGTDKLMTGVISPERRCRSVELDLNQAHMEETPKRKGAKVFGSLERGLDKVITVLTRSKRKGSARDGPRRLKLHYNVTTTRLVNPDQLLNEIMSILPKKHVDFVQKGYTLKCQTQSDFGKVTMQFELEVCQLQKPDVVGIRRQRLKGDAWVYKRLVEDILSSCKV

Row | SMILES | IC50 [1] [nM] | IC50 [2] [µM]
1 | CNc1ncc(-c2ccc(C(=O)NCC(=O)Nc3ccccc3)cc2)c(OCC2CCNCC2)n1 | 120 | 
2 | COc1ccc2nc(CNC(=O)c3ccc(-c4cnccc4OCC4CCNCC4)cc3)[nH]c2c1 | 1.5 | 7.8
3 | O=C(CNC(=O)c1ccc(-c2cnc(Nc3ccccc3)nc2OCC2CCNCC2)cc1)Nc1ccccc1 | 8.8 | 
4 | CNc1ncc(-c2ccc(C(=O)NCc3nc4ccc(OC)cc4[nH]3)cc2)c(OCC2CCNCC2)n1 | 1.5 | 
5 | O=C(CNC(=O)c1ccc(-c2cnccc2OCC2CCNCC2)cc1)Nc1ccccc1 | 740 | 0.36
6 | O=C(NCc1nc2ccccc2[nH]1)c1ccc(-c2cnccc2OCC2CCNCC2)cc1 | 12 | 

More lines, now with the values ahead:

Row | IC50 [1] [nM] | IC50 [2] [µM] | SMILES
7 | 9.2 |  | CNc1ncc(-c2ccc(C(=O)NCc3nc4ccccc4[nH]3)cc2)c(OCC2CCNCC2)n1
8 | 0.15 |  | COc1ccc2nc(CNC(=O)c3ccc(-c4cnc(Nc5ccccc5)nc4OCC4CCNCC4)cc3)[nH]c2c1
9 | 1.1 |  | O=C(NCc1nc2ccccc2[nH]1)c1ccc(-c2cnc(Nc3ccccc3)nc2OCC2CCNCC2)cc1
